# Data from patent publication US8304408B2, “Wnt signaling inhibitors, and methods for making and using them” (The Regents of the University of California, priority 2007, dated 2012).
# B1: Recombinant Dkk1: recombinant Dkk1, a Wnt inhibitor used as comparator (protein, UniProt O94907 32-266, looked up)
# Dickkopf-related protein 1: TLNSVLNSNAIKNLPPPLGGAAGHPGSAVSAAPGILYPGGNKYQTIDNYQPYPCAEDEECGTDEYCASPTRGGDAGVQICLACRKRRKRCMRHAMCCPGNYCKNGICVSSDQNHFRGEIEETITESFGNDHSTLDGYSRRTTLSSKMYHTKGQEGSVCLRSSDCASGLCCARHFWSKICKPVLKEGQVCTKHRRKGSHGLEIFQRCYCGEGLSCRIQKDHHQASNSSRLHTCQRH
# What was measured:
# [1] = system: TCF/LEF dependent reporter gene (wnt/beta-catenin signaling) in HEK293 cells; assay: Top-flash assay: HEK293 cells transfected with a TCF/LEF dependent reporter gene; format: cell-based; settings: for inhibition of wnt-signaling path in HEK293 reporter assay: even at concentrations of 50 uM
# Description: FIG. 2 in graphic form illustrates data comparing inhibition of beta-catenin in a “Top-flash assay.” In this assay HEK 293 cells were transfected with a TCF/LEF dependent reporter gene and expression plasmid for Dsh. After overnight incubation, the cells were treated with the indicated amounts of debromohymenialdesine (“MC-001”, or dBHD, or dbHD), which is compound I in FIG. 1, analog II and III, or vehicle alone, after which the reporter gene activity was measured. All cells were also transfected with a reporter gene control for testing the transfection efficiency. In FIG. 2, the first pair of bars (to the left, closest to the y, or “fold induction”, axis) is DMSO, then moving right, the second pair of bars is 5 μM debromohymenialdesine, or dbHD (compound I of FIG. 1), then 10 μM dbHD, then 20 μM dbHD, then 50 μM compound II of FIG. 1, then 50 μM compound III of FIG. 1.
# A dose response curve for debromohymenialdesine, or “MC-001”, or dbHD (or dBHD), (compound I of FIG. 1) from the HEK293 cell line assay is shown in FIG. 3. The curve is well behaved showing a relatively steep sigmoidal inhibition-concentration profile with an IC50 value of 2 uM.
# Storage stability = format: physicochemical; settings: at RT
# BALB/C mice = assay: Toxicity tests in mice; format: in vivo; settings: for toxic / adverse effects in mice: doses up to 100 mg/kg
# normal HSC = assay: Replating of normal HSC; format: cell-based; settings: at doses that inhibited CML HSC and GMP
# Description: (§1) On day 10, individual colonies were plucked and replicated in new methylcellulose and the replating efficiency was determined.
# [2] = system: GMP from advanced phase CML; assay: Replating efficiency of CML GMP; format: cell-based; settings: replating efficiency after day 10 colony replating in methylcellulose
# Description: as §1
# Solubility in water = format: physicochemical
# [3] = system: chronic myelogenous leukemia stem cell (CML HSC); assay: Replating efficiency (self-renewal) of CML hematopoietic stem cells; format: cell-based; settings: for self-renewal / replating efficiency of leukemia stem cells: 2 uM drug concentration; for inhibition of CML HSC replating: replating efficiency after day 10 colony replating in methylcellulose
# Description: as §1
# [4] = log P (partition coefficient); format: physicochemical
molecule,measurement,setting,value
"c1ccc2nc3ccccc3c-2nc1 [indoloazepine, reference compound]",inhibition of wnt-signaling path in HEK293 reporter assay,[1],did not inhibit
"NC1=N[C@]23CCCN2C(=O)c2cc(Br)c(Br)n2[C@@H]3N1 [dibromophakelin, reference compound]",inhibition of wnt-signaling path in HEK293 reporter assay,[1],did not inhibit
"NC1=NC(=O)/C(=C2\CCNC(=O)c3[nH]c(Br)cc32)N1 [Hymenialdesine, hymenialdesine, reference compound]",inhibition of wnt-signaling path in HEK293 reporter assay,[1],did not inhibit
"NC1=NC(=O)/C(=C2\CCNC(=O)c3[nH]ccc32)N1 [debromohymenialdesine, (4Z)-4-(2-amino-5-oxo-3,5-dihydro-4H-imidazol-4-ylidene)-4,5,6,7-tetrahy-dropyrrolo(2,3-c)azepin-8(1H)-one]",Storage stability,Storage stability,several months
same,toxic / adverse effects in mice,BALB/C mice; listed as MC-001,no adverse affects
same,toxic / adverse effects in mice,BALB/C mice; listed as dBHD,no toxic effects
same,tolerability in mice,"BALB/C mice; mouse, in vivo",well tolerated
same,effect on normal HSC replating,normal HSC,spared
same,inhibition of CML GMP replating,[2],inhibited
same,solubility,Solubility in water,0.022 mg/mL
same,self-renewal / replating efficiency of leukemia stem cells,[3],completely abrogated
same,self-renewal / replating efficiency of leukemia stem cells,[3]; listed as MC-001,completely abrogates
same,inhibition of CML HSC replating,[3],inhibited
same,inhibition of wnt-signaling in HEK293 cells transfected with a TCF/LEF dependent reporter gene,[1],inhibited
same,IC50,"[1]; Homo sapiens, HEK293 cells, TCF/LEF dependent reporter gene, read-out: IC50 from dose response curve, HEK293 cell line assay",2 µM
same,activity of synthetically obtained compound versus natural product,"[1]; compound made by total synthesis, cell based reporter system",comparable to the natural product
same,logP,[4],-0.58
B1,inhibition of CML HSC replating,[3],did not inhibit
